The source made the active and inactive calls. No cut-off for these calls is given here.
Legend:
SW-620 = test: Cytotoxicity against human SW620 cells harboring KRAS G12V mutant assessed as cell growth inhibition incubated for 24 hrs by MTT assay; type: functional, cell-based; details: SW-620, 24 h
[1] = test system: GTPase KRas (Homo sapiens), P01116 [G12D]; test: Inhibition of KRAS G12D mutant in human PANC-1 cells at 2.5 uM by Western blot analysis; type: cell-based; details: time <= 48.0 hrs, TDE = time-dependent effect
[2] = Toxicity in BALB/C-nu/nu mouse model xenografted with human MIA PaCa-2 cells assessed as signs of pain at 2.5 to 5 mg/kg,ip everyday for 18 days; type: organism-based; details: in vivo, 432 h, dose 2.5-5 mg/kg, time 18 day
HCT-116 = test: Cytotoxicity against human HCT-116 cells harboring KRAS G13D mutant assessed as cell growth inhibition incubated for 24 hrs by MTT assay; type: functional, cell-based; details: HCT-116, 24 h
MIA PaCa-2 [3] = test: In vivo inhibition of KRAS in human MIA PaCa-2 cells xenografted in BALB/C-nu/nu mouse model at 2.5 to 5 mg/kg,ip everyday for 18 days by IHC analysis; type: functional, organism-based; details: dose 2.5-5 mg/kg, time 18.0 day
MIA PaCa-2 [4] = test: Effect on total KRAS mRNA level in human MIA PaCa-2 cells xenografted in BALB/C-nu/nu mouse model at 2.5 to 5 mg/kg,ip everyday for 18 days by RT-qPCR analysis; type: functional, organism-based; details: dose 2.5-5 mg/kg, time 18.0 day
[5] = Toxicity in BALB/C-nu/nu mouse model xenografted with human MIA PaCa-2 cells assessed as signs of distress at 2.5 to 5 mg/kg,ip everyday for 18 days; type: organism-based; details: in vivo, 432 h, dose 2.5-5 mg/kg, time 18 day
NCI-H358 [6] = test: Effect on KRAS mRNA level in human NCI-H358 cells harboring KRAS G12C mutant at upto 5 uM incubated upto 48 hrs by RT-qPCR analysis; type: functional, cell-based
MIA PaCa-2 [7] = test: In vivo inhibition of KRAS in human MIA PaCa-2 cells xenografted in BALB/C-nu/nu mouse model at 2.5 to 5 mg/kg,ip everyday for 18 days by Western blot analysis; type: functional, organism-based; details: dose 2.5-5 mg/kg, time 18.0 day
NCM460 = test: Cytotoxicity against human NCM460 cells harboring wild-type KRAS assessed as cell growth inhibition incubated for 24 hrs by MTT assay; type: functional, cell-based; details: NCM460, 24 h
[8] = molecular target: GTPase KRas (Homo sapiens) (UniProt P01116); test: Inhibition of KRAS in human MIA PaCa-2 cells assessed as decrease in ERK phosphorylation at 2.5 uM by Western blot analysis; type: cell-based; details: time <= 24.0 hrs, TDE = time-dependent effect
[9] = Toxicity in BALB/C-nu/nu mouse model xenografted with human MIA PaCa-2 cells assessed as signs of discomfort at 2.5 to 5 mg/kg,ip everyday for 18 days; type: organism-based; details: in vivo, 432 h, dose 2.5-5 mg/kg, time 18 day
[10] = molecular target: GTPase KRas (Homo sapiens) (UniProt P01116); test: Inhibition of KRAS in human MIA PaCa-2 cells assessed as decrease in mTOR phosphorylation incubated for 24 hrs by Western blot analysis; type: cell-based; details: dose 1.25-5 µM
Quadruplex DNA [11] = test: Binding affinity to SS12 G-Quadruplex (unknown origin) assessed as dissociation constant by fluorescence spectroscopy; type: nucleic-acid assay
MIA PaCa-2 [12] = test: Inhibition of cell proliferation of human MIA PaCa-2 cells at 0.32 to 1.25 uM incubated for 10 days by colony formation assay relative to control; type: functional; details: dose 0.32-1.25 µM, time 10 day
NCI-H358 [13] = test: Cytotoxicity against human NCI-H358 cells harboring KRAS G12C mutant assessed as cell growth inhibition incubated for 24 hrs by MTT assay; type: functional, cell-based; details: NCI-H358, 24 h
U-87 MG = test: Cytotoxicity against human U-87 MG cells harboring wild-type KRAS assessed as cell growth inhibition incubated for 24 hrs by MTT assay; type: functional, cell-based, U-87MG ATCC
HPAF-II = test: Cytotoxicity against human HPAF-II cells harboring KRAS G12D mutant assessed as cell growth inhibition incubated for 24 hrs by MTT assay; type: functional, cell-based
[14] = molecular target: GTPase KRas (Homo sapiens) (UniProt P01116); test: Inhibition of KRAS in human MIA PaCa-2 cells assessed as decrease in AKT phosphorylation incubated for 24 hrs by Western blot analysis; type: cell-based; details: dose 1.25-5 µM
[15] = Cytotoxicity against human PANC-1 cells […] assessed as cell growth inhibition incubated for 24 hrs by MTT assay; type: functional, cell-based; details: PANC-1, 24 h
Quadruplex RNA = test: Binding affinity to NRAS RNA G-Quadruplex (unknown origin) assessed as melting temperature at 25 uM at 25 to 95 degreeC by CD spectroscopy (reference value: 82.2 degreeC); type: nucleic-acid assay
[16] = molecular target: GTPase KRas (Homo sapiens) (UniProt P01116); test: Inhibition of KRAS in human MIA PaCa-2 cells assessed as decrease in MEK phosphorylation incubated for 24 hrs by Western blot analysis; type: cell-based; details: dose 1.25-5 µM
[17] = Toxicity in BALB/C-nu/nu mouse model xenografted with human MIA PaCa-2 cells assessed as body weight change at 2.5 to 5 mg/kg,ip everyday for 18 days; type: organism-based; details: in vivo, 432 h, dose 2.5-5 mg/kg, time 18 day
MIA PaCa-2 [18] = test: Antitumor activity against human MIA PaCa-2 cells xenografted in BALB/C-nu/nu mouse model assessed as decrease of tumor volume administered intraperitoneally everyday for 18 days; type: functional, cell-based; details: dose 2.5-5 mg/kg, route ip, time 18.0 day
[19] = molecular target: GTPase KRas (Homo sapiens) (UniProt P01116); test: Inhibition of KRAS in human PANC-1 cells at 2.5 uM incubated for 24 hrs by Western blot analysis; type: cell-based
[20] = Cytotoxicity against human LX2 cells harboring wild-type KRAS assessed as cell growth inhibition incubated for 24 hrs by MTT assay; type: toxicity, cell-based, LX-2
MIA PaCa-2 [21] = test: Cytotoxicity against human MIA PaCa-2 cells harboring KRAS G12C mutant assessed as cell growth inhibition incubated for 24 hrs by MTT assay; type: functional, cell-based; details: MIA PaCa-2, 24 h
Quadruplex DNA [22] = test: Binding affinity to HP12 G-Quadruplex (unknown origin) assessed as dissociation constant by fluorescence spectroscopy; type: nucleic-acid assay
[23] = test system: GTPase KRas (Homo sapiens), P01116 [G12C]; test: Inhibition of KRAS G12C mutant in human NCI-H358 cells at 2.5 uM by Western blot analysis; type: cell-based; details: time <= 48.0 hrs, TDE = time-dependent effect
MIA PaCa-2 [24] = test: Effect on total protein level in human MIA PaCa-2 cells at 2.5 uM incubated for upto 24 hrs by Western blot analysis; type: functional, cell-based
PANC-1 [25] = test: Effect on NRAS level in human PANC-1 cells harboring KRAS G12D mutant at 1.25 to 5 uM by Western blot analysis; type: functional, cell-based; details: dose 1.25-5 µM
PANC-1 [26] = test: Effect on KRAS mRNA level in human PANC-1 cells harboring KRAS G12D mutant at upto 5 uM incubated upto 48 hrs by RT-qPCR analysis; type: functional, cell-based
[27] = Toxicity in BALB/C-nu/nu mouse model xenografted with human MIA PaCa-2 cells assessed as toxic sigs in viscera at 2.5 to 5 mg/kg,ip everyday for 18 days; type: organism-based; details: in vivo, 432 h, dose 2.5-5 mg/kg, time 18 day
MIA PaCa-2 [28] = test: Antitumor activity against human MIA PaCa-2 cells xenografted in BALB/C-nu/nu mouse model assessed as reduction in tumor weight at 2.5 to 5 mg/kg,ip everyday for 18 days; type: functional, organism-based; details: dose 2.5-5 mg/kg, time 18.0 day
PANC-1 [29] = test: Cytotoxicity against human PANC-1 cells overexpressing KRAS G12D mutant assessed as cell death incubated for 24 hrs by MTT assay; type: functional, cell-based
Quadruplex DNA [30] = test: Disruption of DHX36/KRAS rG-Quadruplex (unknown origin) by ELISA; type: nucleic-acid assay; details: dose 20.0 µM

Chain of GTPase KRas (Homo sapiens) (P01116 whole entry, looked up): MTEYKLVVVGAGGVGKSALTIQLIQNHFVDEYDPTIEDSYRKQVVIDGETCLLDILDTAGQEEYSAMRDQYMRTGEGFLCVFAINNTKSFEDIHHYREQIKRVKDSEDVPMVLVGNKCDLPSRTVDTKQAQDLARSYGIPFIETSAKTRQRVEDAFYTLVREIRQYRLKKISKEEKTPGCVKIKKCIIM
Chain of GTPase KRas (Homo sapiens), P01116 [G12C] (P01116 whole entry G12C): as the sequence (P01116 whole entry, looked up) above, with G12C counted along it
Chain of GTPase KRas (Homo sapiens), P01116 [G12D] (P01116 whole entry G12D, looked up): as the sequence (P01116 whole entry, looked up) above, with G12D counted along it

inhibition [1]: Tde
inhibition [8]: Tde
inhibition [10]: Dose-Dependent Effect
Kd (Quadruplex DNA [11]): > 5 µM
inhibition [14]: Dose-Dependent Effect
Tm (Quadruplex RNA): 78.7 °C
inhibition [16]: Dose-Dependent Effect
inhibition [19]: Active
Kd (Quadruplex DNA [22]): > 5 µM
inhibition [23]: Tde
Activity (Quadruplex DNA [30]): Dose-Dependent Effect
Structure (SMILES): CCN(CC)c1ccc2cc(/C=C/c3ccc4cc(F)c(NCCN5CCCC5)cc4[n+]3C)c(=O)oc2c1.[I-]
IC50 (SW-620): 5.1 µM
Activity [2]: Non-Toxic
IC50 (HCT-116): 4 µM
Activity (MIA PaCa-2 [3]): Active
Activity (MIA PaCa-2 [4]): inactive
Activity [5]: Non-Toxic
Activity (NCI-H358 [6]): inactive
Activity (MIA PaCa-2 [7]): Active
IC50 (NCM460): > 40 µM
Activity [9]: Non-Toxic
inhibition (INH) (MIA PaCa-2 [12]): 100%
IC50 (NCI-H358 [13]): 4.8 µM
IC50 (U-87 MG): > 40 µM
IC50 (HPAF-II): 5.4 µM
IC50 [15]: > 40 µM
Activity [17]: Non-Toxic
Activity (MIA PaCa-2 [18]): Dose-Dependent Effect
IC50 at 24 h [20]: > 40 µM
IC50 (MIA PaCa-2 [21]): 33 µM
Activity (MIA PaCa-2 [24]): inactive
Activity (PANC-1 [25]): inactive
Activity (PANC-1 [26]): inactive
Activity [27]: Non-Toxic
Activity (MIA PaCa-2 [28]): Active
Activity (PANC-1 [29]): inactive

Source: ChEMBL document CHEMBL5537197, “Discovery of Novel Coumarin-quinolinium Derivatives as Pan-KRAS Translation Inhibitors by Targeting 5'-UTR RNA G-Quadruplexes” (J Med Chem, 2024)
